Tested on: apolipoprotein D
Assay: Inhibitory effect against degradation of apolipoprotein D (human sweat concentrate treated with Brevibacterium epiderumidis cells, western blot)
Type: biochemical
Details: human sweat concentrate as apolipoprotein-D-containing sample; Brevibacterium epiderumidis cells as protease, about 10^8 cfu/mL; 37° C. for 24 hours; antibody-staining after SDS-PAGE
Procedure: Inhibitory effects of lauric acid and oleic acid on degradation of apolipoprotein D were studied using a human sweat concentrate as an apolipoprotein-D-containing sample and Brevibacterium epiderumidis cells as a protease.
(1) Preparation of Sweat Samples
The absorbent cotton balls were squeezed, whereby a solution (57.5 mL) was collected. The collected solution was filtered through a 0.45-μm filter and then concentrated by use of a MILLIPOR Centriprep YM-10.
Distilled water was added again to the concentrate, and the resultant solution was concentrated in a similar manner by use of a Centriprep YM-10, to thereby remove substances of low molecular weight. The product was employed as a sweat concentrate.
(2) 100 mM Tris-HCl buffer (0.03 mL), distilled water (0.02 mL), and each of lauric acid (Sigma) and oleic acid (Sigma) were added to an aliquot (0.04 mL) of the sweat concentrate prepared through the above method (1). […] Briefly, the cell-treated sweat concentrate was subjected to SDS polyacrylamide electrophoresis (SDS-PAGE) by use of a Ready Gel J (15% of separation gel concentration, Bio-Rad Laboratories, Inc.), and the thus-separated proteins were electrically transcribed from the gel onto a PVDF filter (Millipore Corporation, Immobilon transfer membrane). […]

In the case of CCCCCCCCCCCC(=O)O [lauric acid], the “degradation of apolipoprotein D (percent residue of apolipoprotein D)” value is reported as “degradation of apolipoprotein D was suppressed”.
In the case of CCCCCCCC/C=C\CCCCCCCC(=O)O [oleic acid], the “degradation of apolipoprotein D (percent residue of apolipoprotein D)” value is reported as “degradation of apolipoprotein D was suppressed”.

From patent US7078437B2, “Apolipoprotein D degradation inhibitor” (Kao Corporation, priority 2003, dated 2006)
